Measurements taken from paper PMC12051234, “NrdR in Streptococcus and Listeria spp.: DNA Helix Phase Dependence of the Bacterial Ribonucleotide Reductase Repressor” (Molecular Microbiology, 2025).

Molecular target: T1, LmoNrdR (Listeria monocytogenes, UniProt Q8Y6W9)
T1 construct: gene nrdR; full-length, C-terminal His6 tag kept (pET30a(+), NdeI/XhoI), E. coli BL21(DE3); 19 kDa with tag
T1 sequence (Q8Y6W9 1-154): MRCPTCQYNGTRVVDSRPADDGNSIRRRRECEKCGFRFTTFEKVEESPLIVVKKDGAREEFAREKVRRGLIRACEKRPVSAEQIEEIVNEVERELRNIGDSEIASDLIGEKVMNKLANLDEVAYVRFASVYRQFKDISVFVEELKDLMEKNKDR
Test: size exclusion chromatography, oligomer shift; MST of DNA binding
Conditions: 25 mM Bis-Tris propane pH 6.5, 5 mM MgCl2, 100 mM KCl, 4 C; ADP alone

Nc1ncnc2c1ncn2[C@@H]1O[C@H](COP(=O)(O)OP(=O)(O)O)[C@@H](O)[C@H]1O [ADP]
size exclusion chromatography, oligomer shift; MST of DNA binding: LmoNrdR also eluted as a tetramer in the presence of only ADP
